Results on 19 molecules are retold here after patent US5837687A, “Azapeptide derivative” (Fujirebio Inc., priority 1994, dated 1998).

The IC50 is the concentration that gives 50% inhibition.

Test [1] addresses T1, NKA receptor (Mesocricetus auratus, UniProt P51144).
T1 construct: from tissue; host or cells: hamster respiratory tract (trachea) ring specimens
T1 sequence (P51144 1-384): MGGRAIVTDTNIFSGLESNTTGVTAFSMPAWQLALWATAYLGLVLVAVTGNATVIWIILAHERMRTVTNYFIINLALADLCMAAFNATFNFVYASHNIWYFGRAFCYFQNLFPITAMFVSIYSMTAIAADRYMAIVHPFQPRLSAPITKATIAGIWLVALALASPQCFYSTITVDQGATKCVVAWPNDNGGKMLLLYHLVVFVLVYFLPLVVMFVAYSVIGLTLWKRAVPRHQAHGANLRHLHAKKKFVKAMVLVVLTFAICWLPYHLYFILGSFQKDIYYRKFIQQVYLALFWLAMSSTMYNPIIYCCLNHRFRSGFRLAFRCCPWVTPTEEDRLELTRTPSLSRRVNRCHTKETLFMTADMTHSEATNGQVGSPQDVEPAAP
Description: Activity to constriction of hamster respiratory tracts caused by NKA (isolated tissue, tension). It is filed as cell-based. As to the method:
The activity of the azapeptide derivative of the present invention to a NKA receptor was evaluated by the following method.
(1) Activity to constriction of hamster respiratory tracts caused by NKA
Respiratory tracts were taken out from male Syrian strain Golden hamsters having a body weight of 100 to 180 g, and cyclic specimens having a width of 3 to 6 mm were prepared. The specimens were incubated at 37° C. and suspended by loading a static tension of 0.5 g, in a reaction tank charged with 15 ml of a Tyrode solution (137 mM of NaCl, 2.7 mM of KCl, 1.8 mM of CaCl2, 1.02 mM of MgCl2, 11.9 mM of NaHCO3, 0.42 mM of NaH2 PO4 and 5.5 mM of glucose) in which 95% O2 -5% CO2 had been passed.
The compound to be tested was charged into the reaction tank and maintained for 5 minutes. 1×10^-7 M of NKA was charged into the reaction tank, and tension caused thereby was recorded. The examined effect of the tested compound as an antagonist was shown by IC50.

Test [2] deals with T2, NKA receptor (Cavia porcellus, UniProt Q64077).
T2 construct: Male Hartley strain guinea pigs having a body weight of 350 to 500 g were anesthetized; from tissue; host or cells: whole anaesthetized guinea pig (airways, in vivo)
T2 sequence (Q64077 1-402): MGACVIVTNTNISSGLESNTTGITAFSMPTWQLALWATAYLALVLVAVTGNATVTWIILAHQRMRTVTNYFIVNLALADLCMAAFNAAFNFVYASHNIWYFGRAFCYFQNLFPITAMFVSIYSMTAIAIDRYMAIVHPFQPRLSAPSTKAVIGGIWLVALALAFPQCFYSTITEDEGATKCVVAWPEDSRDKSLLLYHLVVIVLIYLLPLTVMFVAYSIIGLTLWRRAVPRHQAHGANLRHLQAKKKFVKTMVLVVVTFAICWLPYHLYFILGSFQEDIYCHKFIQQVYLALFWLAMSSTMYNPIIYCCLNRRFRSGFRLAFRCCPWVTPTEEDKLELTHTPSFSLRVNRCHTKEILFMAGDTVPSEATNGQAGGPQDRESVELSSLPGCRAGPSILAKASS
Description: Activity to constriction of guinea pig respiratory tracts caused by NKA (in vivo, excess air amount). The note with it: anesthetized guinea pigs, cervical vein; for Controlling rate (%) 1 min: 2 nmol/kg NKA given 1 min after test compound; for Controlling rate (%) 15 min: 2 nmol/kg NKA given 15 min after test compound. As to the method: (2) Activity to constriction of guinea pig respiratory tracts caused by NKA
Male Hartley strain guinea pigs having a body weight of 350 to 500 g were anesthetized by administering 1.5 g/kg of urethane into abdominal cavities thereof. Cannulas made of polyethylene were inserted into cervical veins and respiratory tracts. From the cervical vein cannulas, 1 mg of gallamine was administered to stop respiration. The respiratory tract cannulas were connected to a respirator, and artificial respiration was carried out with an air-supplying amount at one time of 4 to 6 ml and an air-supplying frequency of 70 times/min. Side branches of the respiratory tract cannulas were introduced into a water tank, and a hydraulic pressure of 8 cm H2 O was loaded. Excess air amounts exceeding the above hydraulic pressure and discharged were measured. From the cervical vein cannulas, 2 nmol/kg of NKA was administered, each compound to be tested was administered after 15 minutes, and further 2 nmol/kg of NKA was administered after 1, 15, 30, 45 and 60 minutes, respectively. The increased amounts of excess air after the respective NKA administrations were measured, and percentages relative to the increased amounts of excess air when the respiratory tracts were completely closed were determined, which were defined as respiratory constriction rates. The decreased ratios of the respiratory constriction rates after administering the compounds to be tested to the respiratory constriction rates before administering the compounds to be tested were shown by percentages, which were defined as controlling rates. The controlling rates were regarded as an effect of the compound to be tested as an antagonist.

Read-outs that look alike come from different tables or passages of the source.

“Ac-LDQWFG-NH2 [Reference example 13, Ac-Leu-Asp-Gln-Trp-Phe-Gly-NH2, reference compound]”: the IC50 on NKA receptor [1] (mole concentration giving 50% control of tension caused by 1×10^-7 M NKA, compound maintained 5 minutes, hamster respiratory tract specimens, read-out: IC50) was 22 nM. Further, on NKA receptor [2], the “Controlling rate (%) 1 min” value worked out at 11.9% and the “Controlling rate (%) 15 min” value is recorded as 3.9%.
Regarding `NC(=O)C[C@H](NC(=O)OCc1ccccc1)C(=O)N[C@@H](Cc1c[nH]c2ccccc12)C(=O)NN(Cc1ccccc1)C(=O)NCCOCc1ccccc1` [Example 12, Z-Asn-Trp-AzPhe-NH(CH2)2 OCH2 Ph], 4.5 nM corresponded to half-maximal inhibition against NKA receptor [1] (IC50). Moreover, on NKA receptor [2], the “Controlling rate (%) 1 min” value was 19.5% and the “Controlling rate (%) 15 min” value was found to be 73.2%. The “Controlling rate (%) 30 min” value at NKA receptor [2] (2 nmol/kg NKA given 30 min after test compound) is listed as 62.2%. Also, the “Controlling rate (%) 45 min” value on NKA receptor [2] (2 nmol/kg NKA given 45 min after test compound) is listed as 54.8%. Further, the “Controlling rate (%) 60 min” value at NKA receptor [2] (2 nmol/kg NKA given 60 min after test compound) is reported as 51.7%.
On NKA receptor [1], `CC(C)(C)OC(=O)N[C@@H](CCC(N)=O)C(=O)N[C@@H](Cc1c[nH]c2ccccc12)C(=O)NN(Cc1ccccc1)C(=O)NCCOCc1ccc(F)cc1` [Example 18 (2), Boc-Gln-Trp-AzPhe-NH(CH2)2 OCH2 Ph(4-F)] showed an IC50 of 5.6 nM.
At NKA receptor [1], `COc1ccc(CNC(=O)N(Cc2ccc(OCc3ccccc3)cc2)NC(=O)[C@H](Cc2c[nH]c3ccccc23)NC(=O)[C@H](CCC(N)=O)NC(=O)OC(C)(C)C)c(OC)c1` [Example 32 (2), Boc-Gln-Trp-AzTyr(CH2 Ph)-NHDmob] had an IC50 of 7700 nM.
The same measure, in the same setting: as for `CC(C)(C)OC(=O)N[C@@H](CCC(N)=O)C(=O)N[C@@H](Cc1c[nH]c2ccccc12)C(=O)NN(Cc1ccccc1)C(=O)NCc1ccc(F)cc1` [Example 17 (2), Boc-Gln-Trp-AzPhe-NHCH2 Ph(4-F)], the figure is 29 nM; as for `CC(C)(C)OC(=O)N[C@@H](CC(=O)OCc1ccccc1)C(=O)N[C@@H](CCC(N)=O)C(=O)N[C@@H](Cc1c[nH]c2ccccc12)C(=O)NN(Cc1ccccc1)C(=O)NCCc1ccccc1` [Example 19 (3), Boc-Asp(OBzl)-Gln-Trp-AzPhe-NH(CH2)2 Ph], 5.3 nM.
The same measure, in the same setting: the same measure for `CC(C)(C)OC(=O)N[C@@H](CC(=O)OCc1ccccc1)C(=O)N[C@@H](Cc1c[nH]c2ccccc12)C(=O)NN(Cc1ccccc1)C(=O)NCCOCc1ccccc1` [Example 16 (1), Boc-Asp(OBzl)-Trp-AzPhe-NH(CH2)2 OCH2 Ph]: 13 nM; for `CC(C)(C)OC(=O)N[C@@H](CC(=O)OCc1ccccc1)C(=O)N[C@@H](CCC(N)=O)C(=O)N[C@@H](Cc1c[nH]c2ccccc12)C(=O)NN(Cc1ccccc1)C(=O)OCc1ccccc1` [Example 28 (3), Boc-Asp(OBzl)-Gln-Trp-AzPhe-OBzl]: 27 nM; for `CC(C)(C)OC(=O)N[C@@H](CC(=O)OCc1ccccc1)C(=O)N[C@@H](CCC(N)=O)C(=O)N[C@@H](Cc1c[nH]c2ccccc12)C(=O)NN(Cc1ccccc1)C(=O)N1CCOCC1` [Example 26 (3), Boc-Asp(OBzl)-Gln-Trp-AzPhe-M]: 830 nM.
On the same count and under the same terms, the same measure for `CC(C)(C)OC(=O)N[C@@H](CCCN)C(=O)N[C@@H](Cc1c[nH]c2ccccc12)C(=O)NN(Cc1ccccc1)C(=O)NCCOCc1ccccc1` [Example 13 (2), Boc-Orn-Trp-AzPhe-NH(CH2)2 OCH2 Ph]: 78 nM.
On to `CC(C)(C)NC(=O)N[C@@H](CCC(N)=O)C(=O)N[C@@H](Cc1c[nH]c2ccccc12)C(=O)NN(Cc1ccccc1C(F)(F)F)C(=O)NCCOCc1ccccc1` [Example 40 (3), t-Bu-NHCO-Gln-Trp-AzPhe(2-CF3)-NH(CH2)2 OCH2 Ph], for which the IC50 at NKA receptor [1] stood at 0.31 nM.
The same measure, in the same setting: the same measure for `CC(C)c1ccc(CN(NC(=O)[C@H](Cc2c[nH]c3ccccc23)NC(=O)[C@H](CCC(N)=O)NC(=O)NC(C)(C)C)C(=O)NCCOCc2ccccc2)cc1` [Example 36 (3), t-Bu-NHCO-Gln-Trp-AzPhe(4-iPr)-NH(CH2)2 OCH2 Ph]: 69 nM; for `CC(C)(C)OC(=O)N[C@@H](CC(=O)OCc1ccccc1)C(=O)N[C@@H](CCC(N)=O)C(=O)N[C@@H](Cc1c[nH]c2ccccc12)C(=O)NN(Cc1ccccc1)C(N)=O` [Example 1 (3), Boc-Asp(OBzl)-Gln-Trp-AzPhe-NH2]: 45 nM.
On NKA receptor [1], `CC(C)(C)OC(=O)N[C@@H](CC(=O)OCc1ccccc1)C(=O)N[C@@H](CCC(N)=O)C(=O)N[C@@H](Cc1c[nH]c2ccccc12)C(=O)NN(Cc1ccccc1)C(=O)NCc1ccccc1` [Example 20 (3), Boc-Asp(OBzl)-Gln-Trp-AzPhe-NHCH2 Ph] displayed an IC50 of 1.7 nM.
On the same count and under the same terms, as for `CC(C)CCC(=O)N[C@@H](CCC(N)=O)C(=O)N[C@@H](Cc1c[nH]c2ccccc12)C(=O)NN(Cc1ccccc1)C(=O)NCCOCc1ccccc1` [Example 3, i-Pent-CO-Gln-Trp-AzPhe-NH(CH2)2 OCH2 Ph], the figure is 0.6 nM; as for `Cc1ccc(CN(NC(=O)[C@H](Cc2c[nH]c3ccccc23)NC(=O)[C@H](CCC(N)=O)NC(=O)NC(C)(C)C)C(=O)NCCOCc2ccccc2)c(C)c1` [Example 37 (3), t-Bu-NHCO-Gln-Trp-AzPhe(2,4-diMe)-NH(CH2)2 OCH2 Ph], 0.27 nM; as for `CC(C)(C)OC(=O)N[C@@H](CCCNC(=N)N[N+](=O)[O-])C(=O)N[C@@H](Cc1c[nH]c2ccccc12)C(=O)NN(Cc1ccccc1)C(=O)NCCOCc1ccccc1` [Example 15, Boc-Arg(NO2)-Trp-AzPhe-NH(CH2)2 OCH2 Ph], 35 nM.
The same measure, in the same setting: as for `CC(C)(C)OC(=O)N[C@@H](CC(=O)OCc1ccccc1)C(=O)N[C@@H](CCC(N)=O)C(=O)N[C@@H](Cc1c[nH]c2ccccc12)C(=O)NN(Cc1ccccc1)C(=O)NCc1ccc(F)cc1` [Example 17 (3), Boc-Asp(OBzl)-Gln-Trp-AzPhe-NHCH2 Ph(4-F)], the figure is 4.2 nM.
Same read-out and setting: the same measure for `CC(C)(C)OC(=O)N[C@@H](CCC(N)=O)C(=O)N[C@@H](Cc1c[nH]c2ccccc12)C(=O)NN(Cc1ccc(F)cc1)C(=O)NCCOCc1ccccc1` [Example 30 (2), Boc-Gln-Trp-AzPhe(4-F)-NH(CH2)2 OCH2 Ph]: 1.1 nM.
